The values that follow come from publication PMC5672791 (Journal of medicinal chemistry, 2015).

“Also recorded” adds a separate entry of the source. Where a SMILES comes first, the peptide text is derived from it. [ ]: non-standard residue; d: D form.

For test [1], the target named is mMC4R (Mus musculus, UniProt P56450). It counts as cell-based.
In test [2] the target is T1, mMC3R (Mus musculus, UniProt P33033). It counts as cell-based.
The target in test [3] is mMC5R (Mus musculus, UniProt P41149). The experiment in a line: cAMP based β-galactosidase reporter assay, agonist activity at mMC5R. It counts as cell-based. The following applies: read-out: mMC5R Agonist EC50; HEK-293 cells, CRE/β-galactosidase reporter; mean ± SEM.
In test [4] the target is T1, mMC3R. Description: cAMP based β-galactosidase reporter assay. It counts as cell-based. As to conditions: Figure 1. On the technique in general: In a reporter assay the amount or activity of a reporter protein is the signal.
Test [5] relates to mMC4R F176K. The following applies: mutation F176K; cited from earlier work.
In test [6] the test system is mMC4R mutations (E92K, F253S). The following applies: cited from earlier work.
Test [7] concerns the target hMC3R. As to conditions: cited from earlier work.
For test [8], the system named is hMC4R. The following applies: cited from earlier work.
In test [9] the test system is MC4R. As to conditions: cited from earlier work.
Where [10] appears, read: Schild analysis, agonist MTII, mean ± SEM.

T1 sequence (P33033 whole entry): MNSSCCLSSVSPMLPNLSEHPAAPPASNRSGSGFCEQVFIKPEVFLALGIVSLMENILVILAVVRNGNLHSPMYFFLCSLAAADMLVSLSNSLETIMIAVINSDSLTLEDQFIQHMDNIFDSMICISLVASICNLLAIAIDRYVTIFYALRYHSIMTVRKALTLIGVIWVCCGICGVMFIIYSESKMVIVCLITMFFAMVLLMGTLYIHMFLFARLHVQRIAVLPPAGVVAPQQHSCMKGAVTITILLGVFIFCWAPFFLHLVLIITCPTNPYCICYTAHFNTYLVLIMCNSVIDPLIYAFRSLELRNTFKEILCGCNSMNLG
Chain of mMC4R (P56450 whole entry): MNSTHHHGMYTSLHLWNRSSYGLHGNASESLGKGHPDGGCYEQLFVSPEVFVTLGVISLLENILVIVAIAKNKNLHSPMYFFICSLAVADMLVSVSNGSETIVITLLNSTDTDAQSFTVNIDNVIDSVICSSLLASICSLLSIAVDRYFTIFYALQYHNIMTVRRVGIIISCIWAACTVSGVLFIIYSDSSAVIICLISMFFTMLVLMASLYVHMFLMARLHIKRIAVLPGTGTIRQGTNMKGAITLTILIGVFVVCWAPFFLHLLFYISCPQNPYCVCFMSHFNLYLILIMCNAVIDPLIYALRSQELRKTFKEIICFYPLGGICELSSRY
Chain of mMC5R (P41149 whole entry): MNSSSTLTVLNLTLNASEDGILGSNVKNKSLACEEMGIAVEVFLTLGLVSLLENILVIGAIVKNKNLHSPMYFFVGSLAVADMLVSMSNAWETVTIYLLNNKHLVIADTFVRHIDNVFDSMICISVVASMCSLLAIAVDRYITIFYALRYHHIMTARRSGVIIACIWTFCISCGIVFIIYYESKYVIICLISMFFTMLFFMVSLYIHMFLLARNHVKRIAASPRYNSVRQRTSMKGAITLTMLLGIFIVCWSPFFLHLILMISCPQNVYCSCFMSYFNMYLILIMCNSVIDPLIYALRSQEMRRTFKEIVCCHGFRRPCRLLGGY

By EC50 is commonly meant the midpoint of the concentration-response curve. In the case of `C[C@@H]1NC(=O)[C@H](Cc2ccccc2)NC(=O)[C@H](C)NC(=O)[C@H](CC(N)=O)NC(=O)[C@H](Cc2ccccc2)NC(=O)[C@H](Cc2ccccc2)NC(=O)[C@H](CCCNC(=N)N)NC(=O)[C@H](C)NC(=O)[C@H](Cc2ccc(O)cc2)NC(=O)[C@@H]2CCCN2C(=O)[C@H]2CCCN2C(=O)[C@H](Cc2ccc(O)cc2)NC1=O` [Peptide 4], in [1], the “no activity at the mMC4R up to (concentration)” value was more than 100 µM. Besides, in test [1] (setting [10]), the “mMC4R antagonist pA2” value is >100,000. In addition, the “no activity at the mMC3R up to (concentration)” value in test [2] was more than 100 µM. In addition, in [2] (setting [10]), the “mMC3R antagonist pA2” value is on record as >100,000. Further, the EC50 in test [3] is more than 100000 nM.
In general, Ki refers to a measure of affinity in units of concentration, obtained from inhibition or displacement. In test [1], `C[C@@H]1NC(=O)[C@H](CC(N)=O)NC(=O)[C@H](Cc2ccccc2)NC(=O)[C@H](Cc2ccccc2)NC(=O)[C@H](CCCNC(=N)N)NC(=O)[C@H]([C@@H](C)O)NC(=O)[C@H](Cc2ccc(O)cc2)NC(=O)[C@@H]2CCCN2C(=O)[C@H]2CCCN2C(=O)[C@H](Cc2ccc(O)cc2)NC(=O)[C@H]([C@@H](C)O)NC(=O)[C@H](Cc2ccccc2)NC1=O` [Peptide 5] (cyclo(YTRFFNAFTY[dP]P)) gave a Ki of 160 nM. In addition, in [3], the EC50 is more than 100000 nM.
With `C[C@@H]1NC(=O)[C@H](CC(N)=O)NC(=O)[C@H](Cc2ccccc2)NC(=O)[C@H](Cc2ccccc2)NC(=O)[C@H](CCCNC(=N)N)NC(=O)[C@@H]2CCCN2C(=O)[C@H]2CCCN2C(=O)[C@H](Cc2ccccc2)NC1=O` [Peptide 6, c[Pro-Arg-Phe-Phe-Asn-Ala-Phe-DPro]], the “partial agonist activity at the mMC3R” value in test [4] is listed as “lack of agonist activity; also recorded: without any partial agonist activity”.
Same read-out and setting: the value for `C[C@@H]1NC(=O)[C@H](CN)NC(=O)[C@H](Cc2ccccc2)NC(=O)[C@H](Cc2ccccc2)NC(=O)[C@H](CCCNC(=N)N)NC(=O)[C@@H]2CCCN2C(=O)[C@H]2CCCN2C(=O)[C@H](Cc2ccccc2)NC1=O` [Peptide 22, c[Pro-Arg-Phe-Phe-Dap-Ala-Phe-DPro]] was “did not result in partial agonist activity”.
Consider “AGRP(83-132): C-terminal AGRP(83-132) peptide (SSRRCVRLHESCLGQQVPCCDPCATCYCRFFNAFCYCRKLGTAMNPCSRT; UniProt O00253 83-132, looked up, fragment)”, for which the “loss of antagonist potency at mMC4R F176K” value in test [5] was “complete loss of activity”. Besides, the “binding to mMC4R mutations E92K, F253S” value in [6] is listed as “unable to bind”.
For orientation: IC50 means the concentration that gives 50% inhibition. For “Ac-c[Cys-Arg-Phe-Phe-Asn-Ala-Phe-Cys]-NH2 [AGRP(110-117)]”, the “binding affinity at the hMC3R” value in test [7] is “no detectable binding”. Also, the “fold lower hMC4R binding affinity than AGRP(83-132)” value in test [8] (compared to C-terminal AGRP(83-132)) is given as “approximately 36 fold”. Also, the IC50 in test [8] (read-out: IC50 binding affinity at the hMC4R) was 127 nM.
In the case of HS024, in test [9], the “selectivity for the MC4R compared to the MC3R” value is given as “approximately 20 fold”.
